EC50 data for 64 molecules are collected here from BindingDB's records for doi:10.7270/Q2TX3CTT (Broad Institute, 2010).

In general, EC50 refers to the concentration at which the effect is half-maximal.

Structures are written as SMILES. Where a name gives a salt, the structure may show the parent alone.

The target of the assay is Glycogen synthase kinase-3 beta (Homo sapiens, UniProt P49841). Description: concentration-response blocking of human GSK3B – biochemical, luminescence, cell-free homogeneous, retest, dose response (AID 434954).
Chain of Glycogen synthase kinase-3 beta (P49841 whole entry): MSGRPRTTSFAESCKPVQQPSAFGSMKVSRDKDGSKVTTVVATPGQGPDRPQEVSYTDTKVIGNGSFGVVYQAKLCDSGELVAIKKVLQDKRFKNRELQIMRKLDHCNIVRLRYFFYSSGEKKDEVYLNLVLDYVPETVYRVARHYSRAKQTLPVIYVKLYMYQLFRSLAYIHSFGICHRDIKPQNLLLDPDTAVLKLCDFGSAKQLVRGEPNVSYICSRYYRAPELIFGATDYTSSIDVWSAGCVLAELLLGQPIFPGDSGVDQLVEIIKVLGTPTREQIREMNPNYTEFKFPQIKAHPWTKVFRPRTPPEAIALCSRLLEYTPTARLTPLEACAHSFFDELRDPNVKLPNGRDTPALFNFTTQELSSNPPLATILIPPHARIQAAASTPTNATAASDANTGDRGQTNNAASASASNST
As for `COc1ccc2occ(C(=O)c3ccccc3)c2c1` [(5-methoxy-1-benzofuran-3-yl)-phenyl-methanone], the EC50 was 22.9 µM.
Molecule `COC(=O)c1ccc(CSc2nnc(-c3ccncc3)o2)cc1` came in with an EC50 of over 300 µM.
Take `CCCc1c(C(=O)NN=Cc2ccncc2)nnn1-c1nonc1N`: the EC50 is over 300 µM.
For `N#Cc1c(-c2ccccc2)nc(-c2ccccc2)[nH]c1=O` [SMR000168447] the value was over 300 µM.
`CCN1CCN(c2c(C(=O)c3ccc(OC)cc3)cnc3ccccc23)CC1` [[4-(4-ethylpiperazin-1-yl)quinolin-3-yl](4-methoxyphenyl)methanone]: the EC50 is over 300 µM.
For `c1ccc(-c2nc(NCCCn3ccnc3)c3oc4ccccc4c3n2)cc1` [N-[3-(1-imidazolyl)propyl]-2-phenyl-4-benzofuro[3,2-d]pyrimidinamine;hydrochloride] the value was 34.7 µM; for `Nc1nonc1-n1nnc(C(=O)NN=Cc2ccc(Cl)cc2Cl)c1CN1CCCC1` [1-(4-azanyl-1,2,5-oxadiazol-3-yl)-N-[(2,4-dichlorophenyl)methylideneamino]-5-(pyrrolidin-1-ylmethyl)-1,2,3-triazole-4-carboxamide], over 300 µM; for `Cc1ccccc1C1=NC(C(F)(F)F)(C(F)(F)F)c2c(n(C)c(=O)n(C)c2=O)N1` [1,3-dimethyl-7-(2-methylphenyl)-5,5-bis(trifluoromethyl)-8H-pyrimido[4,5-d]pyrimidine-2,4-dione], over 300 µM.
Then `O=C(O)COc1ccc2occ(C(=O)c3ccccc3)c2c1`, with 4.3 µM; and `Nc1nonc1-n1nnc(C(=O)NN=Cc2c(F)cccc2Cl)c1-c1ccc2c(c1)OCO2` [1-(4-amino-1,2,5-oxadiazol-3-yl)-5-(1,3-benzodioxol-5-yl)-N-[(2-chloro-6-fluorophenyl)methylideneamino]-4-triazolecarboxamide], with 1.58 µM.
For `CC(C)N1CCc2c(sc(NC(=O)CCc3ccccc3)c2C(N)=O)C1` [MLS000419104] the value was over 300 µM; for `CCCOc1cc(C)nc(-c2ccccc2O)n1` [(6E)-6-(6-methyl-4-propoxy-1H-pyrimidin-2-ylidene)-1-cyclohexa-2,4-dienone], over 300 µM; for `CC(=O)N1CCc2c(sc(NC(=O)C3CCCCC3)c2C(N)=O)C1` [2-(cyclohexylcarbonylamino)-6-ethanoyl-5,7-dihydro-4H-thieno[2,3-c]pyridine-3-carboxamide], over 300 µM.
On to `Cc1ccc(-n2c(C)nc3c(cnn3-c3ccc(F)cc3)c2=O)cc1C` [SMR000026457], for which the EC50 was over 300 µM.
Consider `O=c1cc(-c2ccccc2)oc2cc(O)cc(O)c12` [5,7-dihydroxy-2-phenyl-4H-chromen-4-one], for which the EC50 is over 300 µM.
With `CCOc1ccc(CNC(=O)Cn2ccc3cc(S(=O)(=O)N4CCCCCC4)ccc32)cc1` [SMR000629622], the EC50 is over 300 µM.
Then `CCCCc1cc(=O)oc2cc(C)c(CN3CCCC3)c(O)c12` [4-butyl-7-methyl-5-oxidanyl-6-(pyrrolidin-1-ylmethyl)chromen-2-one], with over 300 µM; and `Nc1nonc1-n1nnc(C(=O)NN=Cc2ccc(O)cc2)c1CN1CCCCCC1` [1-(4-azanyl-1,2,5-oxadiazol-3-yl)-5-(azepan-1-ylmethyl)-N'-[(4-oxidanylidenecyclohexa-2,5-dien-1-ylidene)methyl]-1,2,3-triazole-4-carbohydrazide], with 1.85 µM.
On to `N#Cc1c(-c2ccccc2)nc(SCC(=O)NC2CCCCC2)[nH]c1=O` [2-[(5-cyano-4-oxo-6-phenyl-1H-pyrimidin-2-yl)sulfanyl]-N-cyclohexylacetamide], for which the EC50 is over 300 µM.
For `Cc1cc2nc(-c3cccnc3O)[nH]c2cc1C` the value was 8.16 µM; for `Cc1ccccc1CN=Nc1ncnc2nc[nH]c12` [MLS000419110], 17.2 µM.
Then `O=C(Nc1ccc(O)c2c(=O)cc(-c3ccccc3Cl)oc12)c1ccccc1Cl`, with over 300 µM; and `Nc1ccccc1Nc1cc(-c2ccccc2)[nH]n1` [2-N-(5-phenyl-1H-pyrazol-3-yl)benzene-1,2-diamine], with over 300 µM.
For `Fc1cccc(Nc2ncnc3n[nH]cc23)c1` [MLS001033418] the value was 32.4 µM; for `O=C(C1CCCO1)N1N=C(c2ccc(Br)cc2)CC1c1ccco1` (centres undefined) [MLS000699386], over 300 µM; for `Nc1nnnn1/N=C/c1ccc(N2CCCCC2)c([N+](=O)[O-])c1` [SMR000174985], over 300 µM.
Molecule `O=C(Nc1cccc(F)c1)c1cccc2c1C(=O)N(C1CCCCC1)C2` [MLS000912875] came in with an EC50 of over 300 µM.
For `COc1cccc(C(=O)NCCCNC(=O)c2cccc(OC)c2)c1` [3-methoxy-N-[3-[[(3-methoxyphenyl)-oxomethyl]amino]propyl]benzamide] the value was over 300 µM.
Then `Cc1ccnc(NC(=O)c2cccc([N+](=O)[O-])c2C)c1` [2-methyl-N-(4-methylpyridin-2-yl)-3-nitro-benzamide], with over 300 µM; and `Cc1ccnc(NC(=O)C2CC(=O)N(c3ccc4c(c3)OCCO4)C2)c1` (centres undefined) [SMR000709078], with 25.6 µM; and `CN(Cc1ccccc1)S(=O)(=O)c1ccc2c(c1)NC(=O)CC(=O)N2` [N-benzyl-N-methyl-2,4-dioxo-1,5-dihydro-1,5-benzodiazepine-7-sulfonamide], with over 300 µM.
Then `CC(=O)N(\C=C/C=C/C=C1\Sc2ccccc2C1=O)c1ccccc1` [N-[(1Z,3E,5Z)-5-(3-oxo-1-benzothien-2(3H)-ylidene)penta-1,3-dienyl]-N-phenylacetamide], with over 300 µM; and `C[n+]1ccccc1C=Cc1cc(Br)ccc1O` [SMR000554448], with over 300 µM; and `Nc1ncnc(Nc2cccc(C(F)(F)F)c2)n1`, with over 300 µM.
Molecule `Nc1nc(NCc2ccco2)nc(Nc2cccc(F)c2)c1[N+](=O)[O-]` [SMR000436034] displayed a 50% effective concentration (EC50) of over 300 µM.
Molecule `COc1cc2c(cc1OC)C(C)N(C(=O)c1ccc(Br)o1)CC2` (centres undefined) [SMR000269781] had a concentration giving a half-maximal response (EC50) of over 300 µM.
On to `CCn1c(SCC(=O)Nc2cc(Cl)ccc2OC)nnc1C1CC1` [MLS001220637], for which the EC50 was over 300 µM.
Then `c1ccc2c(Nc3nc(-c4ccncc4)nc4ccccc34)cccc2c1` [N-naphthalen-1-yl-2-pyridin-4-ylquinazolin-4-amine], with over 300 µM; and `CC(C)=CCc1c(O)cc2c(c1O)C(=O)CC(c1ccccc1)O2` (centres undefined) [MLS000697639], with over 300 µM; and `Cc1cc2c(s1)NC(=O)CN=C2c1cccs1` [MLS000072965], with 33.1 µM.
Then `CCc1ccc(C=NNC(=O)c2nnn(-c3nonc3N)c2CN2CCOCC2)cc1`, with over 300 µM.
For `O=C(CCS(=O)(=O)Cc1ccccc1)Nc1ncc([N+](=O)[O-])s1` [SMR000669229] the value was 57.1 µM; for `COc1ccc(N2C(=O)C3CCCN3C2c2ccccc2F)cc1` (centres undefined) [MLS000117169], over 300 µM; for `O=C(CCS(=O)(=O)c1ccccc1)Nc1cccc2c1C(=O)NC2=O` [3-(benzenesulfonyl)-N-(1,3-dioxoisoindol-4-yl)propanamide], 25.2 µM.
For the molecule `COc1ccccc1-n1c(S)nnc1-c1ccco1` [MLS001214684], the EC50 was over 300 µM.
Then `O=C1NC(=NNc2ccccc2)SC1=Cc1ccccc1` [SMR000174572], with over 300 µM; and `Cc1nn(-c2ccccn2)c2c1C(c1ccsc1)C1C(=O)CCCC1=N2` (centres undefined) [ethanol;3-methyl-1-(2-pyridinyl)-4-(3-thiophenyl)-4,6,7,8-tetrahydro-2H-pyrazolo[3,4-b]quinolin-5-one], with over 300 µM.
Turning to `Oc1cc(-c2c[nH]c3ccccc23)c(O)n1-c1ccccc1` [MLS000121758], the EC50 was over 300 µM.
Then `CN1CCc2c(sc3c2c(=O)n(-c2ccccc2)c2nnc(SCc4ccccc4)n32)C1` [SMR000039895], with over 300 µM; and `CCNc1nc(SCC(N)=O)nc2sc3c(c12)CCN(C)C3` [2-[[4-(ethylamino)-7-methyl-6,8-dihydro-5H-pyrido[4,5]thieno[1,2-c]pyrimidin-2-yl]sulfanyl]acetamide], with 49.4 µM.
Then `Cc1[nH]nc2c1C(c1ccc(F)cc1)C1C(=O)CC(C)(C)CC1=N2` (centres undefined) [4-(4-fluorophenyl)-3,7,7-trimethyl-1,4,6,7,8,9-hexahydro-5H-pyrazolo[3,4-b]quinolin-5-one], with 3.93 µM; and `CNC(=O)NC(=O)CSc1nc2ccccc2n1CCOC` [2-[1-(2-methoxyethyl)benzimidazol-2-yl]sulfanyl-N-(methylcarbamoyl)ethanamide], with over 300 µM; and `Nc1nc(NCC2CCCO2)nc(Nc2cccc(Cl)c2)c1[N+](=O)[O-]` (centres undefined) [SMR000434547], with over 300 µM.
Then `O=C(NCCc1ccccc1)c1cccc(Br)c1`, with over 300 µM; and `COc1ccc(Nc2nc(N)c([N+](=O)[O-])c(N3CCOCC3)n2)cc1` [SMR000434818], with 13.8 µM; and `CCO[C@H]1OC(C(=O)N2CCN(Cc3ccccc3)CC2)=C[C@@H](C)[C@@H]1CCCO`, with over 300 µM.
The molecule `CCCCC(=O)Nc1cc(C)c(NC(=O)c2cccs2)cn1` [N-[4-methyl-6-(1-oxopentylamino)-3-pyridinyl]-2-thiophenecarboxamide] came in with a half-maximal effective concentration (EC50) of over 300 µM.
Then `O=C(Nc1ccccc1C(=O)O)c1nnc[nH]1`, with over 300 µM.
Molecule `COc1ccc(OC)c(Nc2nc(NCc3ccco3)nc(N)c2[N+](=O)[O-])c1` [N'-(2,5-Dimethoxy-phenyl)-N-furan-2-ylmethyl-5-nitro-pyrimidine-2,4,6-triamine] displayed an EC50 of over 300 µM.
For `CCn1c(SCC(=O)Nc2ccccc2Cl)nnc1C1CC1` [N-(2-chlorophenyl)-2-[(5-cyclopropyl-4-ethyl-1,2,4-triazol-3-yl)sulfanyl]ethanamide] the value was over 300 µM.
Then `COc1cccc(-c2nc(SCC(=O)Nc3nc(-c4ccccc4)c(C)s3)[nH]c(=O)c2C#N)c1`, with over 300 µM.
For `Cc1ccc(C2c3c(C)noc3N=C3CC(C)(C)CC(=O)C32)cc1` (centres undefined) [MLS000568466] the value was over 300 µM; for `Nc1nc(NCCCN2CCOCC2)nc(NCc2ccccc2)c1[N+](=O)[O-]` [N'-Benzyl-N-(3-morpholin-4-yl-propyl)-5-nitro-pyrimidine-2,4,6-triamine], 8.32 µM; for `Cc1ccc(Nc2nc(NCC3CCCO3)nc(N)c2[N+](=O)[O-])cc1` (centres undefined), 4.95 µM.
